Like-named read-outs stand apart in the source and are kept apart here.
System: Mortierella elongata AG77
Assay: Carbon source utilisation in Biolog 96-well plates, formazan formation after tetrazolium addition
Format: cell-based
Conditions: for Metabolized: Metabolized = more formazan formation than a control containing no carbon source, observed visually at 2 h, 24 h, 148 h; for Carbon sources that Mortierella elongata AG77 can metabolize: summary of Table 3
Procedure: Two 300 mL volumes of growth medium comprising 1 g/L KH2PO4, 1 g/L MgSO4 7H2O, 0.1 g/L CaCl2, 0.02 g/L FeNaEDTA, 0.1 g/L NaCl, and either 1 g/L NH4NO3 or 20 g/L sucrose were prepared. Acidity was adjusted to 5.5 using NaOH and volumes of growth medium were autoclaved 30 min at 121° C. to sterilize. Aliquots of 200 μL of carbon-free medium or nitrogen-free medium were pipetted into each well of a set of 96-well plates previously prepared with lyophilized putative carbon or nitrogen sources (Biolog Inc., Hayward, Calif.). Inocula were prepared by perforating a culture of Mortierella elongata AG77 grown on 20 g/L potato dextrose agar with a 3 mm diameter cork borer and separating the surface mycelial mat from the solid growth medium using tweezers. Each well was inoculated with one inoculum. Cultures were incubated at 21° C. for 24 hours to allow metabolic changes to stabilize, and then 100 μL of 3 g/L tetrazolium chloride in water was added to each well. Formazan formation was observed visually at 2 h, 24 h, and 148 h.
Conclusions were based on rate and intensity of formazan formation using the 3-4,5-dimethylthiazol-2-yl)-2,5-diphenyltetrazolium bromide (MTT) assay. “Metabolized” indicates more formazan formation than a control containing no carbon source, and “Toxic” indicates less formazan formation than a control containing no carbon source. “Metabolized” and “Toxic” assignments are mutually exclusive. In this example, a compound may be “Metabolized” or “Toxic,” but not both.

[1] = compound as carbon source, Toxic = less formazan formation than a control containing no carbon source

Structure (SMILES)	Toxic	Metabolized (compound as carbon source)	Toxic [1]	Carbon sources that Mortierella elongata AG77 can metabolize
OC[C@H]1O[C@@H](O[C@@H]2[C@@H](CO)OC(O)(CO)[C@H]2O)[C@H](O)[C@@H](O)[C@H]1O (mixture of isomers) [Lactulose]	no	no		
C[N+](C)(C)CC(O)CC(=O)[O-] (racemic) [D,L-Carnitine]		yes	no	can metabolize
O=C(O)CC(O)C(=O)O (racemic) [D,L-Malic Acid]		no	no	
NCC(O)c1ccc(O)cc1 (racemic) [D,L-Octopamine]		no	no	
O=P(O)(O)OCC(O)CO (racemic) [D,L-α-Glycerol- Phosphate]		no	no	
CC(O)CO (centres unmarked) [1,2-Propanediol]		yes	no	can metabolize
CC(O)C(C)O (centres unmarked) [2,3-Butanediol]	no	no		
CC(=O)C(C)=O [2,3-Butanedione]		no	no	
Nc1ncnc2c1ncn2C1CC(O)C(CO)O1 (centres unmarked) [2-Deoxy Adenosine]		no	no	
O=CC[C@H](O)[C@H](O)CO [2-Deoxy-D-Ribose]	no	no		
O=C(O)c1ccccc1O [2-Hydroxy Benzoic Acid]		no		
O=C[C@@H](O)[C@H](O[C@@H]1O[C@H](CO)[C@H](O)[C@H](O)[C@H]1O)[C@H](O)CO [3-0-β-D-Galacto-pyranosyl-D-Arabinose]		no	no	
CC(=O)C(C)O (centres unmarked) [3-Hydroxy 2-Butanone]		no	no	
O=C(O)c1ccc(O)cc1 [4-Hydroxy Benzoic Acid]	no	no		
O=C(CO)[C@@H](O)[C@H](O)[C@@H](O)C(=O)O [5-Keto-D-Gluconic Acid]		no	no	
CC(=O)O [Acetic Acid]		no		
CC(=O)CC(=O)O [Acetoacetic Acid]	no	yes		can metabolize
OC[C@@H](O)[C@@H](O)[C@@H](O)CO [Adonitol]	no	no		
N#C[C@H](O[C@@H]1O[C@H](CO[C@@H]2O[C@H](CO)[C@@H](O)[C@H](O)[C@H]2O)[C@@H](O)[C@H](O)[C@H]1O)c1ccccc1 [Amygdalin]		no	no	
OC[C@H]1O[C@@H](Oc2ccc(O)cc2)[C@H](O)[C@@H](O)[C@@H]1O [Arbutin]		no	no	
O=C(O)CC(Br)C(=O)O (centres unmarked) [Bromo Succinic Acid]		no	no	
CCCC(=O)O [Butyric Acid]	no	no		
CCCCCCCCCC(=O)O [Capric Acid]	no	no		
CCCCCC(=O)O [Caproic Acid]		no	no	

Structure (SMILES)	Toxic	Metabolized (compound as carbon source)	Toxic [1]	Carbon sources that Mortierella elongata AG77 can metabolize
C/C(=C/C(=O)O)C(=O)O [Citraconic Acid]	no	no		
CC(O)(CC(=O)O)C(=O)O (centres unmarked) [Citramalic Acid]	no	no		
O=C(O)CC(O)(CC(=O)O)C(=O)O [Citric Acid]		yes		can metabolize
O=C[C@@H](O)[C@H](O)[C@H](O)CO [D-Arabinose]	no	no		
OC[C@@H](O)C(O)[C@H](O)CO [D-Arabitol]		no	no	
OC[C@H]1O[C@@H](O[C@H]2[C@H](O)[C@@H](O)[C@H](O)O[C@@H]2CO)[C@H](O)[C@@H](O)[C@@H]1O [D-Cellobiose]		no		
O=C(CO)[C@@H](O)[C@H](O)[C@H](O)COP(=O)(O)O [D-Fructose-6-Phosphate]		yes	no	can metabolize
O=C(CO)[C@@H](O)[C@H](O)[C@H](O)CO [D-Fructose]	no	no		
C[C@@H](O)[C@H](O)[C@H](O)[C@@H](O)C=O [D-Fucose]		yes	no	can metabolize
O=C1O[C@@H]([C@H](O)CO)[C@H](O)[C@H]1O [D-Galactonic Acid-γ-Lactone]		yes	no	can metabolize
O=C[C@H](O)[C@@H](O)[C@@H](O)[C@H](O)CO [D-Galactose]	no	no		
O=C[C@H](O)[C@@H](O)[C@@H](O)[C@H](O)C(=O)O [D-Galacturonic Acid]	no	no		
O=C(O)[C@H](O)[C@@H](O)[C@H](O)[C@H](O)CO [D-Gluconic Acid]		no	no	
N[C@@H](C(=O)O)[C@@H](O)[C@H](O)[C@H](O)CO [D-Glucosaminic Acid]		yes	no	can metabolize
O=P(O)(O)O[C@H]1O[C@H](CO)[C@@H](O)[C@H](O)[C@H]1O [D-Glucose-1-Phosphate]		yes		can metabolize
O=C[C@H](O)[C@@H](O)[C@H](O)[C@H](O)COP(=O)(O)O [D-Glucose-6-Phosphate]	no	yes		can metabolize
O=C[C@H](O)[C@@H](O)[C@H](O)[C@H](O)C(=O)O [D-Glucuronic Acid]	no	yes		can metabolize
COC(=O)[C@@H](C)O [D-Lactic Acid Methyl Ester]		yes	no	can metabolize
O=C(O)C[C@@H](O)C(=O)O [D-Malic Acid]		no	no	
OC[C@@H](O)[C@@H](O)[C@H](O)[C@H](O)CO [D-Mannitol]	no	no		
O=C[C@@H](O)[C@@H](O)[C@H](O)[C@H](O)CO [D-Mannose]	no	no		
OC[C@H]1O[C@@](CO)(O[C@H]2O[C@H](CO)[C@@H](O)[C@H](O)[C@H]2O)[C@@H](O[C@H]2O[C@H](CO)[C@@H](O)[C@H](O)[C@H]2O)[C@@H]1O [D-Melezitose]		no	no	
OC[C@H]1O[C@H](OCC2O[C@@H](O)[C@H](O)[C@@H](O)[C@@H]2O)[C@H](O)[C@@H](O)[C@H]1O (stereo partly drawn) [D-Melibiose]		no	no	
O=C(CO)[C@H](O)[C@H](O)[C@H](O)CO [D-Psicose]	no	yes		can metabolize

— patent publication US20200325505A1, “FILAMENTOUS FUNGI CAPABLE OF PRODUCING VERY LONG CHAIN FATTY ACIDS” (UT-Battelle, LLC, priority 2019, published 2020)
